Reference: ChEMBL document CHEMBL1153322, “Identification of novel and orally active spiroindoline NPY Y5 receptor antagonists” (Bioorg Med Chem Lett, 2009)
Active and inactive are the calls of the source. The calls are words filed in the database; no cut-off is given here.

How the values were obtained:
[1] = Oral bioavailability in rat at 10 mg/kg; type: ADME, organism-based; details: in vivo
[2] = biological target: T1, Neuropeptide Y receptor type 5 (Homo sapiens, UniProt Q15761); assay: Displacement of [125I]PYY from human recombinant Y5 receptor expressed in mouse LMtk cells; type: cell-based
T1 sequence (Q15761 whole entry): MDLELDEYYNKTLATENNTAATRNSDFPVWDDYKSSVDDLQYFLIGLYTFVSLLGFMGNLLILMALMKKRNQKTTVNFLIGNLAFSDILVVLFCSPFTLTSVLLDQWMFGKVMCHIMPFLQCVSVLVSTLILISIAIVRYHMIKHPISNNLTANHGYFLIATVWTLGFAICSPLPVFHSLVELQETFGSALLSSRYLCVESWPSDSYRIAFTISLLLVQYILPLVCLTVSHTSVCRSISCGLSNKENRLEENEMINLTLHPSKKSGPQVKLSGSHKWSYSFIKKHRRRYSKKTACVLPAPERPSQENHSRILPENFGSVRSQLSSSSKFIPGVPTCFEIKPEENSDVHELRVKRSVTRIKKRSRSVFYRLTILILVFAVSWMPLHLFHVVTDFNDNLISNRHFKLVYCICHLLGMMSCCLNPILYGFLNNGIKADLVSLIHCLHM

[3] = Ratio of drug level in brain to plasma of rat at 3 mg/kg, iv after 60 mins; type: ADME, organism-based; set-up: dose 3 mg/kg, route intravenous; details: brain and plasma, read-out: BPR
[4] = Ratio of drug level in brain to plasma of rat at 3 mg/kg, iv after 10 mins; type: ADME, organism-based; set-up: dose 3 mg/kg, route intravenous; details: brain and plasma, read-out: BPR
[5] = Solubility at pH 7; type: physicochemical; details: buffer
[6] = Solubility at pH 5; type: physicochemical; details: buffer
[7] = Lipophilicity, log D at pH 7.4; type: physicochemical; details: buffer
[8] = Solubility at pH 1; type: physicochemical; details: buffer
[9] = Solubility at pH 3; type: physicochemical; details: buffer
[10] = test system: Rattus norvegicus; assay: Inhibition of bovine-pancreatic polypeptide-induced food intake in po dosed Sprague-Dawley rat assessed as minimum effective dose measured for 2 hrs; type: functional; details: read-out: MED
[11] = test system: Rattus norvegicus; assay: Toxicity in Sprague-Dawley rat assessed as sedation at 30 mg/kg, po; type: organism-based; set-up: dose 30 mg/kg, route oral; details: in vivo
[12] = test system: Rattus norvegicus; assay: Inhibition of bovine-pancreatic polypeptide-induced food intake in Sprague-Dawley rat at 30 mg/kg, po measured for 2 hrs; type: functional, organism-based; set-up: dose 30 mg/kg

SMILES	bioavailability [1] [%]	IC50 [2] [nM]	other results
CS(=O)(=O)N1CC2(CCN(C(=O)Nc3ccc(-c4ccccc4)nn3)CC2)c2ccccc21	20	3	Kp at 1 h [3]: 0.32; Kp at 10 min [4]: 0.42
CS(=O)(=O)N1CC2(CCN(C(=O)Nc3ccccc3-c3ccccc3)CC2)c2ccccc21		430	
NS(=O)(=O)N1CC2(CCN(C(=O)Nc3ccccc3Cl)CC2)c2ccccc21		5	
CS(=O)(=O)N1C[C@]2(CC[C@H](C(=O)Nc3ccc(-c4ccccc4)cc3)CC2)c2ccccc21		1.5	
CS(=O)(=O)N1C[C@]2(CC[C@@H](C(=O)Nc3ccc(-c4ccccc4)cc3)CC2)c2ccccc21		200	
CS(=O)(=O)N1CC2(CCN(C(=O)Nc3ccc(-c4ccccn4)cc3)CC2)c2ccccc21	12	3	Kp at 1 h [3]: 0.24; Kp at 10 min [4]: 0.23
NS(=O)(=O)N1CC2(CCN(C(=O)Nc3ccc(Cl)c(Cl)c3)CC2)c2ccccc21		4	
CS(=O)(=O)N1CC2(CCN(C(=O)Nc3ccnc(-c4ccccc4)n3)CC2)c2ccccc21		7.5	
CS(=O)(=O)N1CC2(CCN(C(=O)Nc3ccc(Cl)c(Cl)c3)CC2)c2ccccc21		0.2	
NS(=O)(=O)N1CC2(CCN(C(=O)Nc3ccc(Oc4ccccc4)cc3)CC2)c2ccccc21		3	
CS(=O)(=O)Nc1ccccc1N1CCN(C(=O)Nc2cc(-c3ccc(Cl)cc3)n[nH]2)CC1		1.4	
CS(=O)(=O)N1CC2(CCN(C(=O)Nc3nccc(-c4ccccc4)n3)CC2)c2ccccc21		9.8	
CS(=O)(=O)N1CC2(CCN(C(=O)Nc3ccc(-c4cccnc4)cc3)CC2)c2ccccc21	47	2.1	Kp at 1 h [3]: 0.11; Kp at 10 min [4]: 0.13
O=C(Nc1cc(-c2ccc(Cl)cc2)n[nH]1)C1Cc2ccccc2C1		59	
CC(=O)c1ccc(NC(=O)N2CCC3(CC2)CN(S(N)(=O)=O)c2ccccc23)cc1		2	
CS(=O)(=O)N1CC2(CCN(C(=O)Cc3ccc(-c4ccccc4)cc3)CC2)c2ccccc21		180	
CS(=O)(=O)N1CC2(CCN(C(=O)Nc3ccc(-c4ccncc4)cc3)CC2)c2ccccc21	53	4.1	Kp at 1 h [3]: 0.12; Kp at 10 min [4]: 0.12; minimal effective dose [10]: 10 mg/kg; Activity [11]: Non-toxic; Activity [12]: Active
CS(=O)(=O)N1CC2(CCN(C(=O)Nc3cccc(-c4ccncc4)c3)CC2)c2ccccc21		23	

Continued, in another order:

bioavailability [1] [%]	IC50 [2] [nM]	SMILES	other results
0	0.85	CS(=O)(=O)N1CC2(CCN(C(=O)Nc3ccc(-c4ccccc4)cc3)CC2)c2ccccc21	solubility [5]: < 0.01 µg/mL; solubility [6]: < 0.01 µg/mL; logD [7]: > 4; Kp at 1 h [3]: 1.93; Kp at 10 min [4]: 1.3; solubility [8]: < 0.01 µg/mL; solubility [9]: < 0.01 µg/mL
24	0.57	CS(=O)(=O)N1CC2(CCN(C(=O)Nc3ncc(-c4ccccc4)cn3)CC2)c2ccccc21	Kp at 1 h [3]: 0.07; Kp at 10 min [4]: 0.14
0	0.97	CS(=O)(=O)N1CC2(CCN(C(=O)Nc3cnc(-c4ccccc4)cn3)CC2)c2ccccc21	
	1.2	CCCCc1ccc(NC(=O)N2CCC3(CC2)CN(S(C)(=O)=O)c2ccccc23)cc1	
0	0.96	CS(=O)(=O)N1CC2(CCN(C(=O)Nc3ccc(-c4ccccc4)cn3)CC2)c2ccccc21	
0	0.82	CS(=O)(=O)N1CC2(CCN(C(=O)Nc3ccc(-c4ccccc4)nc3)CC2)c2ccccc21	
	1.3	CS(=O)(=O)N1CC2(CCN(C(=O)Nc3cccc(-c4ccccc4)c3)CC2)c2ccccc21	
0	0.86	CS(=O)(=O)N1CC2(CCN(C(=O)Nc3cnc(-c4ccccc4)nc3)CC2)c2ccccc21	
